Patent US20110021487A1, “CYCLOALKOXY-SUBSTITUTED 4-PHENYL-3,5-DICYANOPYRIDINES AND THEIR USE” (BAYER SCHERING PHARMA AKTIENGESELLSCHAFT, priority 2008, published 2011)

Experiments:
Format in all cases: cell-based
[1] = molecular target: T1, adenosine A2a receptor (Homo sapiens, UniProt P29274); assay: Indirect determination of adenosine agonism by gene expression (luciferase reporter), A2a cells; conditions: CHO cells stably transfected with A2a receptor cDNA; 50% of maximum stimulation
T1 construct: expressed in transfected cells; host or cells: CHO (Chinese Hamster Ovary)
T1 sequence (P29274 whole entry): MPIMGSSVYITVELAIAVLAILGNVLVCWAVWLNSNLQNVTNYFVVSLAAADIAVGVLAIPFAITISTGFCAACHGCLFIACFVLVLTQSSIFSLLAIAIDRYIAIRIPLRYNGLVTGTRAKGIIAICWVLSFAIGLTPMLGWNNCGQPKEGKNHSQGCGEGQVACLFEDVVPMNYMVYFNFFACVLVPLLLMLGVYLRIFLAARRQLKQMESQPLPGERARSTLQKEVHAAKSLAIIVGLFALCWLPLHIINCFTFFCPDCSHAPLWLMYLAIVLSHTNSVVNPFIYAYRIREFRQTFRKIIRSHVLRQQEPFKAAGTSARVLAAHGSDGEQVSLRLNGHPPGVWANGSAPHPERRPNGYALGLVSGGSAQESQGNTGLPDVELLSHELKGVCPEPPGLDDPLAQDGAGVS
Text: (§1) Cells of the CHO (Chinese Hamster Ovary) permanent cell line are transfected stably with the cDNA for the adenosine receptor subtypes A1, A2a and A2b. The adenosine A1 receptors are coupled to the adenylate cyclase by way of Gi proteins, while the adenosine A2a and A2b receptors are coupled by way of Gs proteins. In correspondence with this, the formation of cAMP in the cell is inhibited or stimulated, respectively. After that, expression of the luciferase is modulated by way of a cAMP-dependent promoter. The luciferase test is optimized, with the aim of high sensitivity and reproducibility, low variance and good suitability for implementation on a robot system, by varying several test parameters, such as cell density, duration of the growth phase and the test incubation, forskolin concentration and medium composition. The following test protocol is used for pharmacologically characterizing cells and for the robot-assisted substance screening:
(§2) The stock cultures are grown, at 37° C. and under 5% CO2, in DMEM/F12 medium containing 10% FCS (fetal calf serum) and in each case split 1:10 after 2-3 days. The test cultures are seeded in 384-well plates with 2000 cells per well and grown at 37° C. for approx. 48 hours. The medium is then replaced with a physiological sodium chloride solution (130 mM sodium chloride, 5 mM potassium chloride, 2 mM calcium chloride, 20 mM HEPES, 1 mM magnesium chloride hexahydrate, 5 mM sodium bicarbonate, pH 7.4). The substances to be tested, which are dissolved in DMSO, are pipetted into the test cultures (maximum final concentration of DMSO in the test mixture: 0.5%) in a dilution series of from 5×10^−11M to 3×10^−6M (final concentration). 10 minutes later, forskolin is added to the A1 cells and all the cultures are subsequently incubated at 37° C. for four hours. After that, 35 μl of a solution which is composed of 50% lysis reagent (30 mM disodium hydrogenphosphate, 10% glycerol, 3% TritonX100, 25 mM TrisHCl, 2 mM dithiotreitol (DTT), pH 7.8) and 50% luciferase substrate solution (2.5 mM ATP, 0.5 mM luciferin, 0.1 mM coenzyme A, 10 mM tricine, 1.35 mM magnesium sulfate, 15 mM DTT, pH 7.8) are added to the test cultures, which are shaken for approx. 1 minute and the luciferase activity is measured using a camera system. The EC50 values are determined, i.e., the concentrations at which 50% of the luciferase answer is inhibited in the case of the A1 cell, and, respectively, 50% of the maximum stimulation with the corresponding substance is achieved in the case of the A2b and A2a cells. […] Pharmacol., 357 (1998), 1-9].

[2] = molecular target: T2, adenosine A1 receptor (Homo sapiens, UniProt P30542); assay: Indirect determination of adenosine agonism by gene expression (luciferase reporter), A1 cells; conditions: CHO cells stably transfected with A1 receptor cDNA; 1 μM forskolin; 50% inhibition of luciferase answer
T2 construct: expressed in transfected cells; host or cells: CHO (Chinese Hamster Ovary)
T2 sequence (P30542 1-326): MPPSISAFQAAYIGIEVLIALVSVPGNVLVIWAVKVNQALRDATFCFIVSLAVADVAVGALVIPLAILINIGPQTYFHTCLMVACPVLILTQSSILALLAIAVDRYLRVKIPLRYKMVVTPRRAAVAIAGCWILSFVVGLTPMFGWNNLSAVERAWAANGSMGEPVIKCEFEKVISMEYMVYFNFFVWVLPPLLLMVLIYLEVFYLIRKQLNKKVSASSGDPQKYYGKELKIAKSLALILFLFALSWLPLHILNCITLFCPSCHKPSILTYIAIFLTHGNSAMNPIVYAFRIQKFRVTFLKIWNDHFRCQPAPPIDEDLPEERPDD
Text: as §1, §2

[3] = molecular target: T3, adenosine A2b receptor (Homo sapiens, UniProt P29275); assay: Indirect determination of adenosine agonism by gene expression (luciferase reporter), A2b cells; conditions: CHO cells stably transfected with A2b receptor cDNA; 50% of maximum stimulation
T3 construct: expressed in transfected cells; host or cells: CHO (Chinese Hamster Ovary)
T3 sequence (P29275 1-332): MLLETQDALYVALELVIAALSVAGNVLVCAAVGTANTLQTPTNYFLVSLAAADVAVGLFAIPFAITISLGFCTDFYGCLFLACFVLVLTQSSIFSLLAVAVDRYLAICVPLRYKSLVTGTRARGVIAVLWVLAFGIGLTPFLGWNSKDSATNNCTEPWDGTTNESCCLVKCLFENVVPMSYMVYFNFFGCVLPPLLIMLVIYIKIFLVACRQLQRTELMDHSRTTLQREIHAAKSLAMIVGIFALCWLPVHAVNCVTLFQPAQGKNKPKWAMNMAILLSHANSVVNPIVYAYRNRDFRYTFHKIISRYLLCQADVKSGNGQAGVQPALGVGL
Text: as §1, §2

| SMILES | EC50 [1] [nM] | EC50 [2] [nM] | EC50 [3] [nM] |
| --- | --- | --- | --- |
| N#Cc1c(N)nc(SCc2cccnc2)c(C#N)c1-c1ccc(O[C@H]2CCC[C@H]2O)cc1 (racemic) [Example 41, rac-cis-2-Amino-4-(4-{[2-hydroxycyclopentyl]oxy}phenyl)-6-[(pyridin-3-ylmethyl)sulfanyl]pyridine-3,5-dicarbonitrile] | 480 | 2.9 | 11 |
| N#Cc1c(N)nc(SCc2csc(C(N)=O)n2)c(C#N)c1-c1ccc(OC2CCOC2)cc1 (racemic) [Example 50, rac-4-[({6-Amino-3,5-dicyano-4-[4-(tetrahydrofuran-3-yloxy)phenyl]pyridin-2-yl}sulfanyl)methyl]-1,3-thiazole-2-carboxamide] | 1100 | 0.78 | 556 |
| N#Cc1ccccc1CSc1nc(N)c(C#N)c(-c2ccc(O[C@H]3CCCC[C@@H]3O)cc2)c1C#N (single isomer, unassigned) [Example 23, ent-trans-2-Amino-6-[(2-cyanobenzyl)sulfanyl]-4-(4-{[2-hydroxycyclohexyl]oxy}-phenyl)pyridine-3,5-dicarbonitrile] | 518 | 168 | 6.9 |
| N#Cc1c(N)nc(SCc2ccccn2)c(C#N)c1-c1ccc(O[C@H]2COC[C@@H]2O)cc1 (single isomer, unassigned) [Example 32, ent-trans-2-Amino-4-(4-{[4-hydroxytetrahydrofuran-3-yl]oxy}phenyl)-6-[(pyridin-2-ylmethyl)thio]pyridine-3,5-dicarbonitrile] | 144 | 0.86 | 720 |
| N#Cc1c(N)nc(SCc2csc(Nc3ccc(F)cc3)n2)c(C#N)c1-c1ccc(O[C@H]2COC[C@@H]2O)cc1 (single isomer, unassigned) [Example 35, ent-trans-2-Amino-6-[({2-[(4-fluorophenyl)amino]-1,3-thiazol-4-yl}methyl)thio]-4-(4-{[4-hydroxytetrahydrofuran-3-yl]oxy}phenyl)pyridine-3,5-dicarbonitrile] | 874 | 0.56 | 43 |
| COC(=O)c1cccc(C(C)Sc2nc(N)c(C#N)c(-c3ccc(OC4CCOC4)cc3)c2C#N)c1 (single isomer, unassigned; ent-3) [Example 64, Methyl ent-3-[1-({6-amino-3,5-dicyano-4-[4-(tetrahydrofuran-3-yloxy)phenyl]pyridin-2-yl}sulfanyl)ethyl]benzoate] |  | 4.1 |  |
| CC(Sc1nc(N)c(C#N)c(-c2ccc(OC3CCOC3)cc2)c1C#N)c1cccc(C(N)=O)c1 (single isomer, unassigned; ent-3) [Example 66, ent-3-[1-({6-Amino-3,5-dicyano-4-[4-(tetrahydrofuran-3-yloxy)phenyl]pyridin-2-yl}-sulfanyl)ethyl]benzamide] |  | 0.53 | 1780 |
| N#Cc1c(N)nc(SCc2cccnc2)c(C#N)c1-c1ccc(O[C@H]2CCCC[C@@H]2O)cc1 [Example 8] | 497 | 6.9 | 2.4 |
| N#Cc1c(N)nc(SCc2csc(N)n2)c(C#N)c1-c1ccc(O[C@H]2CCCC[C@@H]2O)cc1 [Example 9] |  | 104 | 3.9 |
| N#Cc1c(N)nc(SCc2c[nH]cn2)c(C#N)c1-c1ccc(O[C@H]2CCCC[C@@H]2O)cc1 [Example 10] |  | 265 | 4.3 |
| N#Cc1c(N)nc(SCc2cscn2)c(C#N)c1-c1ccc(O[C@H]2CCCC[C@@H]2O)cc1 [Example 14] | 1920 | 56 | 16 |
| N#Cc1c(N)nc(SCc2cccc(C(N)=O)c2)c(C#N)c1-c1ccc(OC2CCOC2)c(F)c1 (stereo not shown) [Example 58] | 909 | 0.63 | 1010 |

The next molecules have a lower EC50 [2] than those just listed; values first:

| EC50 [1] [nM] | EC50 [2] [nM] | EC50 [3] [nM] | SMILES |
| --- | --- | --- | --- |
| 261 | 0.51 | 177 | CNC(=O)c1nc(CSc2nc(N)c(C#N)c(-c3ccc(OC4CCOC4)cc3)c2C#N)cs1 (racemic) [Example 51, rac-4-[({6-Amino-3,5-dicyano-4-[4-(tetrahydrofuran-3-yloxy)phenyl]pyridin-2-yl}sulfanyl)methyl]-N-methyl-1,3-thiazole-2-carboxamide] |
| 782 | 0.22 |  | Cc1oc(-c2ccc(C(=O)O)cc2)nc1CSc1nc(N)c(C#N)c(-c2ccc(OC3CCOC3)cc2)c1C#N (racemic) [Example 49, rac-4-{4-[({6-Amino-3,5-dicyano-4-[4-(tetrahydrofuran-3-yloxy)phenyl]pyridin-2-yl}thio)methyl]-5-methyl-1,3-oxazol-2-yl}benzoic acid] |
| 1270 | 0.18 |  | N#Cc1c(SCc2csc(-c3ccc(Cl)cc3)n2)nc(N2CC(O)C2)c(C#N)c1-c1ccc(O[C@H]2COC[C@@H]2O)cc1 (single isomer, unassigned) [Example 29, ent-trans-2-({[2-(4-Chlorophenyl)-1,3-thiazol-4-yl]methyl}sulfanyl)-6-(3-hydroxyazetidin-1-yl)-4-(4-{[4-hydroxytetrahydrofuran-3-yl]oxy}phenyl)pyridine-3,5-dicarbonitrile] |
| 424 | 0.16 | 537 | N#Cc1c(N)nc(SCc2cccc(C(N)=O)c2)c(C#N)c1-c1ccc(OC2CCOC2)cc1 (stereo not shown) [Example 43] |
| 506 | 0.14 |  | N#Cc1c(N)nc(SCc2csc(-c3ccc(Cl)cc3)n2)c(C#N)c1-c1ccc(O[C@H]2COC[C@@H]2O)cc1 (racemic) [Example 24, rac-trans-2-Amino-6-({[2-(4-chlorophenyl)-1,3-thiazol-4-yl]methyl}thio)-4-(4-{[4-hydroxytetrahydrofuran-3-yl]oxy}phenyl)pyridine-3,5-dicarbonitrile] |
| 69 | 0.08 | 234 | CNC(=O)c1cc(CSc2nc(N)c(C#N)c(-c3ccc(OC4CCOC4)cc3)c2C#N)ccn1 (stereo not shown) [Example 44] |
